Data reported in US20250206729A1, “DUAL RAF AND TUBULIN INHIBITORS AND METHODS OF USE THEREOF” (Deciphera Pharmaceuticals, LLC, priority 2023, published 2025).

Columns and labels:
[1] = target: T1, B-Raf kinase (SEQ ID NO: 1) (Homo sapiens, UniProt P15056); assay: Biochemical assay for B-Raf (coupled pyruvate kinase/lactate dehydrogenase); conditions: 1 mM ATP; read-out: BRAF (inhibition of biochemical activity, IC50)
T1 construct: GST (N); purchased Sigma

[2] = test system: HPAF-II cells; assay: HPAF-II cell proliferation assay; format: cell-based; conditions: Homo sapiens, HPAF-II; 115 to 120 h incubation, resazurin; read-out: HPAF-II (inhibition of cell proliferation, IC50)
Experimental: (§1) HPAF-II cells (catalog #CRL-1997) are obtained from the American Type Culture Collect (ATCC, Manassas, VA). Briefly, cells are grown in Minimum Essential Media supplemented with 10% characterized fetal bovine serum (Invitrogen, Carlsbad, CA) and 1% Penicillin/Streptomycin/L-Glutamine at 37° C., 5% CO2, and 95% humidity. Cells are expanded until reaching 70-95% confluency at which point they are sub-cultured or harvested for assay use. A serial dilution of test compound is dispensed into a 384-well black clear bottom plate in triplicate. 750 cells are added per well in 50 μL complete growth medium in the 384-well plate. Plates are incubated for 115 to 120 h at 37° C., 5% CO2, and 95% humidity. At the end of the incubation, 40 μL of a […] solution of resazurin (Sigma, St. Louis, MO) in PBS is added to each well of the plate and plates are incubated for an additional 18 to 24 h at 37° C., 5% CO2, and 95% humidity. Plates are read on a Synergy2 or equivalent reader (Biotek, Winooski, VT) using an excitation of 540 nm and an emission of 600 nm. Data is analyzed using Prism software (Graphpad, San Diego, CA) to calculate IC50 values.

[3] = test system: MiaPaca-2 cells; assay: MiaPaca-2 cell proliferation assay; format: cell-based; conditions: Homo sapiens, MIA PaCa-2; 67-72 h incubation, resazurin; read-out: MiaPaca-2 (inhibition of cell proliferation, IC50)
Experimental: Miapaca-2 cells (catalog #CRL-1420) are obtained from the American Type Culture Collect (ATTC, Manassas, VA). Briefly, cells were grown in DMEM supplemented with 10% characterized fetal bovine serum (Invitrogen, Carlsbad, CA), 2.5% New Zealand sourced horse serum and 1% Penicillin/Streptomycin/L-Glutamine at 37° C., 5% CO2, and 95% humidity. Cells are expanded until reaching 70-95% confluency at which point they are sub-cultured or harvested for assay use. A serial dilution of test compound is dispensed into a 384-well black clear bottom plate in triplicate. Seven hundred fifty cells are added per well in 50 μL complete growth medium in the 384-well plate. Plates are incubated for 67-72 h at 37° C., 5% CO2, and 95% humidity. At the end of the incubation, 10 μL of a 440 μM solution of resazurin (Sigma, St. Louis, MO) in PBS is added to each well of the plate and plates are incubated for an additional 5-6 h at 37° C., 5% CO2, and 95% humidity. Plates are read on a Synergy2 or equivalent reader (Biotek, Winooski VT) using an excitation of 540 nm and an emission of 600 nm. Data is analyzed using Prism software (GraphPad, San Diego, CA) to calculate IC50 values.

[4] = test system: HCT-116 cells; assay: HCT-116 cell proliferation assay; format: cell-based; conditions: Homo sapiens, HCT-116; 67 to 72 h incubation, resazurin; read-out: HCT-116 (inhibition of cell proliferation, IC50)
Experimental: HCT-116 cells (catalog #CCL-247) are obtained from the American Type Culture Collect (ATCC, Manassas, VA). Briefly, cells are grown in McCoy's 5A supplemented with 10% characterized fetal bovine serum (Invitrogen, Carlsbad, CA) and 1% Penicillin/Streptomycin/L-Glutamine at 37° C., 5% CO2, and 95% humidity. Cells are expanded until reaching 70-95% confluency at which point they are sub-cultured or harvested for assay use. A serial dilution of test compound is dispensed into a 384-well black clear bottom plate in triplicate. 375 cells are added per well in 50 μL complete growth medium in the 384-well plate. Plates are incubated for 67 to 72 h at 37° C., 5% CO2, and 95% humidity. At the end of the incubation, 40 μL of a […] solution of resazurin (Sigma, St. Louis, MO) in PBS is added to each well of the plate and plates are incubated for an additional 4 to 5 h at 37° C., 5% CO2, and 95% humidity. Plates are read on a Synergy2 or equivalent reader (Biotek, Winooski, VT) using an excitation of 540 nm and an emission of 600 nm. Data is analyzed using Prism software (Graphpad, San Diego, CA) to calculate IC50 values.

[5] = test system: Pa16c cells; assay: Pa16c cell proliferation assay; format: cell-based; conditions: 67 to 72 h incubation, resazurin; read-out: Pa16c (inhibition of cell proliferation, IC50)
Experimental: as §1, with “Pa16c” for “HPAF-II”, “cells” for “cells (catalog #CRL-1997)”, “Dr. Channing Der, University of North Carolina at Chapel Hill.” for “the American Type Culture Collect (ATCC, Manassas, VA).”, “Dulbecco's Modified Eagle Medium” for “Minimum Essential Media”, “67” for “115”, “72” for “120”

[6] = target: T2, C-Raf kinase (SEQ ID NO: 2) (Homo sapiens, UniProt P04049, Y340D/Y341D); assay: Biochemical assay for C-Raf (coupled pyruvate kinase/lactate dehydrogenase); conditions: 1 mM ATP; read-out: CRAF (inhibition of biochemical activity, IC50)
T2 construct: C-Raf residues 306-end; Y340D, Y341D with N-; GST (N); purchased Sigma
T2 sequence (P04049 307-648 Y340D/Y341D): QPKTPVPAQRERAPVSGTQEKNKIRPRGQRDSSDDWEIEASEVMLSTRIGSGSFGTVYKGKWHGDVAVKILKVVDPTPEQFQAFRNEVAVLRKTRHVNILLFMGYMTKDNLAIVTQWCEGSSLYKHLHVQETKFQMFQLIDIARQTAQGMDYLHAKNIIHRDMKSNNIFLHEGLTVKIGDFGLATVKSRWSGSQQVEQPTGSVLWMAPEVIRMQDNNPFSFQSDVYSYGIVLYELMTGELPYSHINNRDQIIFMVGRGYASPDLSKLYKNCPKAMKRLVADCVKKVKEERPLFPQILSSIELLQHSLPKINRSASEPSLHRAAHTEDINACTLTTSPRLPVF

T1 sequence (P15056 416-766): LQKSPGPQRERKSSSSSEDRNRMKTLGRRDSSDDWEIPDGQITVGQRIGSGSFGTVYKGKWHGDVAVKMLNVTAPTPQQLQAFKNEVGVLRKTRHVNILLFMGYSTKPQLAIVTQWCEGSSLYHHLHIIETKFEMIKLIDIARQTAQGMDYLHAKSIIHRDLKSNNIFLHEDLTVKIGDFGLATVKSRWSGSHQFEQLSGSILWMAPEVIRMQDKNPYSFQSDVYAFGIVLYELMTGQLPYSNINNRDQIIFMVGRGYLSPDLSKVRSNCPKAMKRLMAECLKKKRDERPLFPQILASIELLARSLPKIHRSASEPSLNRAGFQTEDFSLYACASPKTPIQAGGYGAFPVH

Compound | IC50 [1] [nM] | IC50 [2] [nM] | IC50 [3] [nM] | IC50 [4] [nM] | IC50 [5] [nM] | IC50 [6] [nM]
Cc1ccc(NC(=O)c2cc(Cl)cnn2)cc1-c1cc(N[C@H](C)CO)nc(N2CCOCC2)c1 [Example 15] | 100 to 500 | 100 to 500 | < 100 | < 100 | 100 to 500 | < 100
Cc1ccc(NC(=O)c2cncc(Cl)c2)cc1-c1cc(N[C@H](C)CO)nc(N2CCOCC2)c1 [Example 16] | < 100 | 500 to 1000 | 100 to 500 | 500 to 1000 | 1000 to 10000 | < 100
Cc1ccc(NC(=O)c2cnc(C3CC3)nc2)cc1-c1cc(N[C@H](C)CO)nc(N2CCOCC2)c1 [Example 17] | 100 to 500 | 500 to 1000 | 500 to 1000 | 500 to 1000 | 1000 to 10000 | < 100
Cc1ccc(NC(=O)c2cncc(C3CC3)c2)cc1-c1cc(N[C@H](C)CO)nc(N2CCOCC2)c1 [Example 18] | < 100 | 100 to 500 | 100 to 500 | 100 to 500 | 1000 to 10000 | < 100
Cc1cc(-c2cc(NC(=O)c3cc(C4CC4)cnn3)ccc2C)cc(N2CCOCC2)n1 [Example 20] | < 100 | 100 to 500 | 100 to 500 | 100 to 500 | 1000 to 10000 | < 100
Cc1ccc(NC(=O)c2cc(C(F)(F)F)cnn2)cc1-c1cnnc(N2CCOCC2)c1 [Example 21, N-(4-methyl-3-(6-morpholinopyridazin-4-yl)phenyl)-5-(trifluoromethyl)pyridazine-3-carboxamide] | 500 to 1000 | 500 to 1000 | 500 to 1000 | 500 to 1000 | 1000 to 10000 | 500 to 1000
Cc1ccc(NC(=O)c2cc(C(F)(F)F)cnn2)cc1-c1cc(N2CCOCC2)cnn1 [Example 22] | 1000 to 10000 | 1000 to 10000 | 1000 to 10000 | 1000 to 10000 | 1000 to 10000 | 1000 to 10000
Cc1ccc(NC(=O)c2cc(C(C)(C)F)cnn2)cc1-c1cc(N[C@H](C)CO)nc(N2CCOCC2)c1 [Example 23] | < 100 | < 100 | < 100 | < 100 | 100 to 500 | < 100
Cc1ccc(NC(=O)c2cc(C3CC3)cnn2)cc1-c1cncc(N2CCOCC2)c1 [Example 24] | 100 to 500 | 100 to 500 | 100 to 500 | 100 to 500 | 100 to 500 | < 100
Cc1ccc(NC(=O)c2cc(C(F)(F)F)cnn2)cc1-c1cc(N2CCOCC2)ncn1 [Example 25] | 500 to 1000 | 100 to 500 | 100 to 500 | 100 to 500 | 1000 to 10000 | 500 to 1000
Cc1ccc(NC(=O)c2cc(C(F)(F)F)cnn2)cc1-c1ccnc(N2CCOC(C(F)F)C2)c1 (stereo not drawn) [Example 26] | 100 to 500 | 100 to 500 | 100 to 500 | 100 to 500 | 500 to 1000 | 100 to 500
Cc1ccc(NC(=O)c2cc(C(F)(F)F)cnn2)cc1-c1cc(N[C@H](C)CO)nc(N2CCOCC2)n1 [Example 28] | 100 to 500 | < 100 | < 100 | 100 to 500 | < 100 | 100 to 500
Cc1ccc(NC(=O)c2cc(C(F)(F)F)cnn2)cc1-c1cc(OCCO)nc(N2CCOCC2)n1 [Example 30] | 500 to 1000 | 100 to 500 | 100 to 500 | 100 to 500 | 100 to 500 | 100 to 500
Cc1ccc(NC(=O)c2cc(C3CC3)cnn2)cc1-c1ccnc(N2CCOCC2)n1 [Example 31] | 1000 to 10000 | 100 to 500 | 100 to 500 | 100 to 500 | < 100 | 500 to 1000
Cc1ccc(NC(=O)c2cc(Cl)cnn2)cc1-c1cc(OCCO)nc(N2CCOCC2)c1 [Example 32] | 500 to 1000 | 1000 to 10000 | 1000 to 10000 | 100 to 500 | 500 to 1000 | 100 to 500
Cc1ccc(NC(=O)c2cc(C(F)(F)F)cnn2)cc1-c1cc(N2CCOCC2)nc(N[C@H](C)CO)n1 [Example 33] | 100 to 500 | 100 to 500 | 100 to 500 | 100 to 500 | 100 to 500 | < 100
Cc1ccc(NC(=O)c2cc(C3CC3)cnn2)cc1-c1cc(N2CCOCC2)nc(N[C@H](C)CO)n1 [Example 35] | < 100 | 100 to 500 | 100 to 500 | 100 to 500 | 100 to 500 | < 100
Cc1ccc(NC(=O)c2cc(C3CC3)cnn2)cc1-c1cc(N[C@H](C)CO)nc(N2CCOCC2)n1 [Example 36] | 100 to 500 | 100 to 500 | 100 to 500 | 100 to 500 | 500 to 1000 | 100 to 500
Cc1ccc(NC(=O)c2cnc(Cl)nc2)cc1-c1cc(N[C@H](C)CO)nc(N2CCOCC2)c1 [Example 38] | 1000 to 10000 | 1000 to 10000 | 1000 to 10000 | 1000 to 10000 | 1000 to 10000 | 500 to 1000
Cc1ccc(NC(=O)c2cc(C(C)C)cnn2)cc1-c1cc(OCCO)nc(N2CCOCC2)c1 [Example 39] | < 100 | 100 to 500 | 100 to 500 | < 100 | 100 to 500 | < 100
Cc1ccc(NC(=O)c2cc(C3CC3)cnn2)cc1-c1cc(N2CCOCC2)ncn1 [Example 40] | 100 to 500 | 500 to 1000 | 1000 to 10000 | 500 to 1000 | 1000 to 10000 | 500 to 1000
Cc1ccc(NC(=O)c2cc(C(F)(F)F)cnn2)cc1-c1cccc(N2CCOCC2)c1 [Example 41] | 100 to 500 | < 100 | 100 to 500 | 100 to 500 | 100 to 500 | < 100
